From patent US8946453B2, “Chemical compounds” (Syngenta Participations AG, priority 2011, dated 2015)

Key:
[1] = tested on: Myzus persicae (Green Peach Aphid); experiment: Activity against Myzus persicae, mixed population, feeding/residual contact, preventive (sunflower leaf discs); details: foliar, 144 h, read-out: activity
[2] = tested on: Myzus persicae (Green Peach Aphid); experiment: Activity against Myzus persicae on cabbage plants, feeding/residual contact, spray chamber; details: in Brassica oleracea, 144 h, read-out: activity against Myzus persicae
[3] = tested on: Myzus persicae (Green Peach Aphid); experiment: Activity against Myzus persicae, mixed population, systemic/feeding, curative (pea seedling roots in test solution); details: 144 h, read-out: activity

Row | melting point | Compound | pest or weed control at 400 ppm [1] | pest or weed control at 200 ppm [2] | pest or weed control at 400 ppm [3]
1 | 91 to 93 °C | CCOC(=O)OC1=C(c2cc(C)ccc2C)C(=O)NC1CC1CCS(=O)(=NC(=O)C(F)(F)F)CC1 (single isomer, unassigned) [Compound P1.6, carbonic acid 4-(2,5-dimethyl-phenyl)-5-oxo-2-[1-oxo-1-(2,2,2-trifluoro-acetylimino)-hexahydro-1λ^6-thiopyran-4-ylmethyl]-2,5-dihydro-1H-pyrrol-3-yl ester ethyl ester] | – | – | –
2 | 87 to 89 °C | CCOC(=O)OC1=C(c2cc(C)ccc2C)C(=O)NC1CC1CCS(=O)(=NC(=O)C(F)(F)F)CC1 (single isomer, unassigned) [Compound P1.7, carbonic acid 4-(2,5-dimethyl-phenyl)-5-oxo-2-[1-oxo-1-(2,2,2-trifluoro-acetylimino)-hexahydro-1λ^6-thiopyran-4-ylmethyl]-2,5-dihydro-1H-pyrrol-3-yl ester ethyl ester] | – | – | –
3 | – | CCOC(=O)OC1=C(c2cc(C)ccc2C)C(=O)NC1CC1CCN(OC)CC1 (stereo not drawn) [Compound P1.1, carbonic acid 4-(2,5-dimethyl-phenyl)-2-(1-methoxy-piperidin-4-ylmethyl)-5-oxo-2,5-dihydro-1H-pyrrol-3-yl ester ethyl ester] | > 80% | ≥ 80% | –
4 | 75 to 76 °C | CCOC(=O)OC1=C(c2cc(C)ccc2C)C(=O)NC1CC1CCSCC1 (stereo not drawn) [Compound P1.2, carbonic acid 4-(2,5-dimethyl-phenyl)-5-oxo-2-(tetrahydro-thiopyran-4-ylmethyl)-2,5-dihydro-1H-pyrrol-3-yl ester ethyl ester] | – | – | –
5 | 97 to 101 °C | CCOC(=O)OC1=C(c2cc(C)ccc2C)C(=O)NC1CC1CCS(=O)(=O)CC1 (stereo not drawn) [Compound P1.3] | – | – | –
6 | 103 to 106 °C | CCOC(=O)OC1=C(c2cc(C)ccc2C)C(=O)NC1CC1CC[S+]([O-])CC1 (stereo not drawn) [Compound P1.4, carbonic acid 4-(2,5-dimethyl-phenyl)-5-oxo-2-(1-oxo-hexahydro-1λ^4-thiopyran-4-ylmethyl)-2,5-dihydro-1H-pyrrol-3-yl ester ethyl ester] | – | – | –
7 | – | CCOC(=O)OC1=C(c2cc(C)ccc2C)C(=O)NC1CC1CCS(=O)(=NC#N)CC1 (stereo not drawn) [Compound P1.5] | > 80% | – | –
8 | 190 to 192 °C | CCOC(=O)OC1=C(c2cc(C)ccc2C)C(=O)NC1CC1CCS(=NC(=O)C(F)(F)F)CC1 (stereo not drawn) [Compound P1.8] | – | – | –
9 | 103 to 105 °C | CCOC(=O)OC1=C(c2cc(C)ccc2C)C(=O)NC1CC1CCS(=NC#N)CC1 (stereo not drawn) [Compound P1.9, carbonic acid 2-(1-cyanoimino-hexahydro-1λ^4-thiopyran-4-ylmethyl)-4-(2,5-dimethyl-phenyl)-5-oxo-2,5-dihydro-1H-pyrrol-3-yl ester ethyl ester] | – | – | –
10 | – | CCOC(=O)OC1=C(c2c(C)cc(C)cc2C)C(=O)NC1CC1CCN(OC)CC1 (stereo not drawn) [Compound P1.10] | > 80% | ≥ 80% | > 80%
11 | – | CCOC(=O)OC1=C(c2cc(C)ccc2C)C(=O)NC1C1CCN(OC)CC1 (stereo not drawn) [Compound P1.11] | – | ≥ 80% | > 80%
12 | – | CCOC(=O)OC1=C(c2c(C)cc(C)cc2C)C(=O)NC1C1CCN(OC)CC1 (stereo not drawn) [Compound P1.12, carbonic acid ethyl ester 2-(1-methoxy-piperidin-4-yl)-5-oxo-4-(2,4,6-trimethyl-phenyl)-2,5-dihydro-1H-pyrrol-3-yl ester] | > 80% | ≥ 80% | > 80%
13 | – | CCOC(=O)OC1=C(c2c(C)cc(C)cc2C)C(=O)N(C)C1CC1CCN(OC)CC1 (stereo not drawn) [Compound P1.13] | > 80% | ≥ 80% | –
14 | – | CCOC(=O)OC1=C(c2c(C)cc(C)cc2C)C(=O)OC1CC1CCN(OC)CC1 (stereo not drawn) [Compound P1.14] | – | ≥ 80% | > 80%
15 | – | CCOC(=O)OC1=C(c2c(C)cc(C)cc2C)C(=O)OC1C1CCN(OC)CC1 (stereo not drawn) [Compound P1.15] | > 80% | ≥ 80% | > 80%
16 | – | Cc1cc(C)c(C2=C(OC(=O)C(C)(C)C)C(CC3CCOCC3)OC2=O)c(C)c1 (stereo not drawn) [Compound P1.16] | > 80% | – | –

Row | melting point | Compound | pest or weed control at 400 ppm [1] | pest or weed control at 200 ppm [2] | pest or weed control at 400 ppm [3]
17 | – | CCOC(=O)OC1=C(c2c(C)cc(Cl)cc2C)C(=O)NC1C1CCN(OC)CC1 (stereo not drawn) [Compound P1.18] | > 80% | – | –
18 | – | CCOC(=O)OC1=C(c2c(C)cc(Cl)cc2C)C(=O)NC1CC1CCN(OC)CC1 (stereo not drawn) [Compound P1.19] | – | – | > 80%
19 | – | Cc1cc(C)c(C2C(=O)NC(CC3CCOCC3)C2=O)c(C)c1 (stereo not drawn) [Compound P2.1] | > 80% | – | –
20 | – | CON1CCC(CC2NC(=O)C(c3cc(C)ccc3C)=C2O)CC1 (stereo not drawn) [Compound P2.2, 3-(2,5-dimethyl-phenyl)-4-hydroxy-5-(1-methoxy-piperidin-4-ylmethyl)-1,5-dihydro-pyrrol-2-one] | > 80% | – | –
21 | 114 to 116 °C | Cc1ccc(C)c(C2C(=O)NC(CC3CCOCC3)C2=O)c1 (stereo not drawn) [Compound P2.4] | – | – | –
22 | 244 to 246 °C | Cc1ccc(C)c(C2=C(O)C(CC3CCS(=O)(=O)CC3)NC2=O)c1 (stereo not drawn) [Compound P2.6, 3-(2,5-dimethyl-phenyl)-5-(1,1-dioxo-hexahydro-1λ^6-thiopyran-4-ylmethyl)-4-hydroxy-1,5-dihydro-pyrrol-2-one] | – | – | –
23 | 189 to 191 °C | Cc1ccc(C)c(C2C(=O)NC(CC3CCS(=O)(=NC#N)CC3)C2=O)c1 (stereo not drawn) [Compound P2.9] | – | – | –
24 | 142 to 145 °C | Cc1ccc(C)c(C2C(=O)NC(CC3CCN(C)CC3)C2=O)c1 (stereo not drawn) [Compound P2.10] | – | – | –
25 | 133 to 136 °C | Cc1cc(C)c(C2C(=O)NC(CC3CCN(C)CC3)C2=O)c(C)c1 (stereo not drawn) [Compound P2.11] | – | – | –
26 | 206 to 209 °C | CON1CCC(C2NC(=O)C(c3c(C)cc(C)cc3C)=C2O)CC1 (stereo not drawn) [Compound P2.12, 4-hydroxy-5-(1-methoxy-piperidin-4-yl)-3-(2,4,6-trimethyl-phenyl)-1,5-dihydro-pyrrol-2-one] | – | – | –
27 | – | CON1CCC(CC2NC(=O)C(c3c(C)cc(C)cc3C)C2=O)CC1 (stereo not drawn) [Compound P2.13] | > 80% | ≥ 80% | > 80%
28 | – | CON1CCC(C2NC(=O)C(c3cc(C)ccc3C)C2=O)CC1 (stereo not drawn) [Compound P2.14] | – | ≥ 80% | –
29 | – | CON1CCC(CC2OC(=O)C(c3c(C)cc(C)cc3C)C2=O)CC1 (stereo not drawn) [Compound P2.16] | > 80% | ≥ 80% | > 80%
30 | – | CON1CCC(C2OC(=O)C(c3c(C)cc(C)cc3C)C2=O)CC1 (stereo not drawn) [Compound P2.17] | > 80% | ≥ 80% | > 80%
31 | – | CON1CCC(C2NC(=O)C(c3c(C)cc(Cl)cc3C)C2=O)CC1 (stereo not drawn) [Compound P2.21] | > 80% | ≥ 80% | > 80%
32 | – | CON1CCC(CC2NC(=O)C(c3c(C)cc(Cl)cc3C)C2=O)CC1 (stereo not drawn) [Compound P2.22] | > 80% | ≥ 80% | –
